Measured values as given in patent US20080113929A1, “Abasic Oligonucleotide as Carrier Platform for Antigen and Immunostimulatory Agonist and Antagonist” (Coley Pharmaceutical GmbH, priority 2004, published 2008).

What was measured:
[1] = molecular target: T1, murine TLR9 (Mus musculus, UniProt Q9EQU3); assay: TLR9 signaling induction, NFκB-luciferase reporter in HEK 293 cells stably transfected with murine TLR9; format: cell-based; details: 16 h, HEK 293 murine TLR9 NFκB-luciferase
T1 construct: expressed in transfected cells; host or cells: HEK 293 cells, stably transfected, also carrying a six-fold NFκB-luciferase reporter plasmid
T1 sequence (Q9EQU3 26-1032): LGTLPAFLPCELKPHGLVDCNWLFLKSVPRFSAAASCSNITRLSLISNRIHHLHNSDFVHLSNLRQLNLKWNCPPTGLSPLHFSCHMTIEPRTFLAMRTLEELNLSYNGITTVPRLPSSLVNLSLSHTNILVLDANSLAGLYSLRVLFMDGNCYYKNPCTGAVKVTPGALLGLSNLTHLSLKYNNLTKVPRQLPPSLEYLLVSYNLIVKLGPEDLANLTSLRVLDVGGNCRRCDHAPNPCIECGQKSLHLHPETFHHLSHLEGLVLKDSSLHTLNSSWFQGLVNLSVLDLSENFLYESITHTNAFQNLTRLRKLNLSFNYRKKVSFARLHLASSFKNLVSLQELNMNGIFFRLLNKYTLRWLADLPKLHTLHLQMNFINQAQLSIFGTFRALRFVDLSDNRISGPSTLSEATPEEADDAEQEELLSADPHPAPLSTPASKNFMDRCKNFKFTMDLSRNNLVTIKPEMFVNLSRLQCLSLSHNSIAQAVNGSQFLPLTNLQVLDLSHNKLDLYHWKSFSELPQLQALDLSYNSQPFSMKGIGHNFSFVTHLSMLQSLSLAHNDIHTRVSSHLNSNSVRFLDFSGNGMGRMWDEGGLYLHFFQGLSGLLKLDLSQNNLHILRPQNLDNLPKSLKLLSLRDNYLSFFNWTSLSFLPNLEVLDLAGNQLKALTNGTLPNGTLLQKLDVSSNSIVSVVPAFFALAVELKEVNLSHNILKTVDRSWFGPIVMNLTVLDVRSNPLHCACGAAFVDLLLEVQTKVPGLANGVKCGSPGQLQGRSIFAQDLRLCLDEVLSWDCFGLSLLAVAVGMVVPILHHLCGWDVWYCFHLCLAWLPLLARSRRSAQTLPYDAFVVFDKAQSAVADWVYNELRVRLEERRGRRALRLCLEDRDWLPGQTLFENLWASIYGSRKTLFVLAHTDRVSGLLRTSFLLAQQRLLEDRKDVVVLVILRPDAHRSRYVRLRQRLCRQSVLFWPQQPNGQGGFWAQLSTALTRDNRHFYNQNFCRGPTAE
Description: FIG. 2 is a graph depicting fold induction of TLR9 signaling in vitro, as measured using 293 cells stably transformed with murine TLR9 and a NF-κB-luciferase reporter construct, following 16 hour incubation with indicated concentrations of hexamer CpG motif GACGTT alone (20321), CpG motif GACGTT in the context of a 20-mer CpG-ODN(ODN 5890; SEQ ID NO:5), or CpG motif GACGTT in the context of flanking abasic sequences in 20-mer 20307 (poly-D) or in 20-mer 20566 (poly-C3 spacer). EC50 values are shown in the graph legend.
Following published methods, HEK 293 cells were stably transfected with a murine TLR9 expression vector and a six-fold NFκB-luciferase reporter plasmid. Cells were plated on 96-well plates at 1.5×10^4 cells/well and allowed to attach overnight. The cells were then treated for sixteen hours with individual test compounds listed below at concentrations ranging between 10^−9 M and 10^−5 M.
Test agents were as follows: ODN 20321 (GACGTT); ODN 5890 (SEQ ID NO:5); 20307 ([…], where each D represents an abasic deoxyribonucleotide unit); and 20566 (JJJJJGACGTTJJJJJJJJJ, where each J represents a C3 spacer derived from propane-1,3-diol).
Each data point was done in duplicate. After 16 h stimulation the supernatant was removed and the cells were treated with lysis buffer and stored at −80° C. until luciferase measurement. Values are given as fold NFκB activation compared with non-stimulated cells.

[2] = test system: RAW 264.7 murine macrophage cell line; assay: In vitro uptake of Cy3-labeled oligomers by RAW 264.7 cells (FACS mean fluorescence); format: cell-based; details: Cy3-labeled 20-mer, 0.5 to 5.0 μM, 1 hr at 37° C.
Description: FIG. 1 is a bar graph depicting uptake by RAW 264.7 cells of Cy3-labeled 20-mer abasic oligonucleotides (poly-D or poly-C3) and of 20-mer ODN 5890 (SEQ ID NO:5). No data is shown for poly-C3 at 4.0 or 5.0 μM.
The 20-mer ODN 5890 ([…]; SEQ ID NO:5), a 20-mer poly-abasic (i.e., poly-D) or a 20-mer poly-C3 were synthesized with a fluorescence tag Cy3. The murine macrophage cell line, RAW 264.7 (American Type Culture Collection, Manassas, Va.), was incubated with various concentrations of test oligomer (0.5 to 5.0 μM) for 1 hr at 37° C. The cells were then washed and FACS analyzed for oligomer uptake by monitoring mean fluorescence. […] No data is shown for poly-C3 at concentrations of 4.0 or 5.0 μM.

Sequence | TLR9 signaling compared with hexamer CpG motif alone (20321), in words [1] | oligomer uptake (comparison in words) [2]
DDDDDGACGTTDDDDDDDDD [compound 20307] | induced significantly more TLR9 signaling | 
TCCATGACGTTTTTGATGTT (Cy3 fluorescent tag attached, position not given here) [ODN 5890, Cy3-tagged in the uptake test] | induced significantly more TLR9 signaling | up taken to a greater extent than either abasic oligonucleotide
JJJJJGACGTTJJJJJJJJJ [compound 20566] | induced significantly more TLR9 signaling | 
